From ChEMBL document CHEMBL4414672, “Synthesis of certain benzothieno[3,2-d]pyrimidine derivatives as a selective SIRT2 inhibitors” (Eur J Med Chem, 2020)

Assays:
Format in all cases: functional
SF-539 = assay: Growth inhibition of human SF539 cells at 10^-5 M incubated for 48 hrs by sulforhodamine B assay; settings: SF-539, 48 h, read-out: GI
Malme-3M = assay: Growth inhibition of human MALME-3M cells at 10^-5 M incubated for 48 hrs by sulforhodamine B assay; settings: read-out: GI
OVCAR-4 = assay: Growth inhibition of human OVCAR4 cells at 10^-5 M incubated for 48 hrs by sulforhodamine B assay; settings: OVCAR-4, 48 h, read-out: GI
K562 = assay: Growth inhibition of human K562 cells at 10^-5 M incubated for 48 hrs by sulforhodamine B assay; settings: K562, 48 h, read-out: GI
OVCAR-3 = assay: Growth inhibition of human OVCAR3 cells at 10^-5 M incubated for 48 hrs by sulforhodamine B assay; settings: OVCAR-3, 48 h, read-out: GI
SW-620 = assay: Growth inhibition of human SW620 cells at 10^-5 M incubated for 48 hrs by sulforhodamine B assay; settings: SW-620, 48 h, read-out: GI
SF-295 = assay: Growth inhibition of human SF295 cells at 10^-5 M incubated for 48 hrs by sulforhodamine B assay; settings: SF-295, 48 h, read-out: GI
OVCAR-8 = assay: Growth inhibition of human OVCAR8 cells at 10^-5 M incubated for 48 hrs by sulforhodamine B assay; settings: OVCAR-8, 48 h, read-out: GI
SNB-19 = assay: Growth inhibition of human SNB19 cells at 10^-5 M incubated for 48 hrs by sulforhodamine B assay; settings: SNB-19, 48 h, read-out: GI
CCRF-CEM = assay: Growth inhibition of human CCRF-CEM cells at 10^-5 M incubated for 48 hrs by sulforhodamine B assay; settings: read-out: GI
NCI-H460 = assay: Growth inhibition of human NCI-H460 cells at 10^-5 M incubated for 48 hrs by sulforhodamine B assay; settings: NCI-H460, 48 h, read-out: GI
A498 = assay: Growth inhibition of human A498 cells at 10^-5 M incubated for 48 hrs by sulforhodamine B assay; settings: A498, 48 h, read-out: GI
ACHN = assay: Growth inhibition of human ACHN cells at 10^-5 M incubated for 48 hrs by sulforhodamine B assay; settings: read-out: GI
NCI-H23 = assay: Growth inhibition of human NCI-H23 cells at 10^-5 M incubated for 48 hrs by sulforhodamine B assay; settings: NCI-H23, 48 h, read-out: GI
PC-3 = assay: Growth inhibition of human PC3 cells at 10^-5 M incubated for 48 hrs by sulforhodamine B assay; settings: PC-3, 48 h, read-out: GI
MDA-MB-435 = assay: Growth inhibition of human MDA-MB-435 cells at 10^-5 M incubated for 48 hrs by sulforhodamine B assay; settings: MDA-MB-435, 48 h, read-out: GI
U-251 = assay: Growth inhibition of human U251 cells at 10^-5 M incubated for 48 hrs by sulforhodamine B assay; settings: U-251, 48 h, read-out: GI
SK-MEL-5 = assay: Growth inhibition of human SK-MEL-5 cells at 10^-5 M incubated for 48 hrs by sulforhodamine B assay; settings: SK-MEL-5, 48 h, read-out: GI
HOP-92 = assay: Growth inhibition of human HOP92 cells at 10^-5 M incubated for 48 hrs by sulforhodamine B assay; settings: HOP-92, 48 h, read-out: GI
EKVX = assay: Growth inhibition of human EKVX cells at 10^-5 M incubated for 48 hrs by sulforhodamine B assay; settings: read-out: GI
SF-268 = assay: Growth inhibition of human SF268 cells at 10^-5 M incubated for 48 hrs by sulforhodamine B assay; settings: SF-268, 48 h, read-out: GI
HCT-116 = assay: Growth inhibition of human HCT116 cells at 10^-5 M incubated for 48 hrs by sulforhodamine B assay; settings: HCT-116, 48 h, read-out: GI
SK-OV-3 = assay: Growth inhibition of human SKOV3 cells at 10^-5 M incubated for 48 hrs by sulforhodamine B assay; settings: SK-OV-3, 48 h, read-out: GI
TK-10 = assay: Growth inhibition of human TK10 cells at 10^-5 M incubated for 48 hrs by sulforhodamine B assay; settings: TK-10, 48 h, read-out: GI
NCI/ADR-RES = assay: Growth inhibition of human NCI/ADR-RES cells at 10^-5 M incubated for 48 hrs by sulforhodamine B assay; settings: read-out: GI
LOX IMVI = assay: Growth inhibition of human LOXIMVI cells at 10^-5 M incubated for 48 hrs by sulforhodamine B assay; settings: read-out: GI
NCI-H522 = assay: Growth inhibition of human NCI-H522 cells at 10^-5 M incubated for 48 hrs by sulforhodamine B assay; settings: NCI-H522, 48 h, read-out: GI
NCI-H322M = assay: Growth inhibition of human NCI-H322M cells at 10^-5 M incubated for 48 hrs by sulforhodamine B assay; settings: read-out: GI
T47D = assay: Growth inhibition of human T47D cells at 10^-5 M incubated for 48 hrs by sulforhodamine B assay; settings: read-out: GI
M14 = assay: Growth inhibition of human M14 cells at 10^-5 M incubated for 48 hrs by sulforhodamine B assay; settings: M14, 48 h, read-out: GI
KM12 = assay: Growth inhibition of human KM12 cells at 10^-5 M incubated for 48 hrs by sulforhodamine B assay; settings: KM12, 48 h, read-out: GI
HCT-15 = assay: Growth inhibition of human HCT15 cells at 10^-5 M incubated for 48 hrs by sulforhodamine B assay; settings: HCT-15, 48 h, read-out: GI
Hs-578T = assay: Growth inhibition of human Hs 578T cells at 10^-5 M incubated for 48 hrs by sulforhodamine B assay; settings: read-out: GI
SNB-75 = assay: Growth inhibition of human SNB75 cells at 10^-5 M incubated for 48 hrs by sulforhodamine B assay; settings: SNB-75, 48 h, read-out: GI
IGROV-1 = assay: Growth inhibition of human IGROV1 cells at 10^-5 M incubated for 48 hrs by sulforhodamine B assay; settings: IGROV-1, 48 h, read-out: GI
SN12C = assay: Growth inhibition of human SN12C cells at 10^-5 M incubated for 48 hrs by sulforhodamine B assay; settings: read-out: GI
A549 = assay: Growth inhibition of human A549/ATCC cells at 10^-5 M incubated for 48 hrs by sulforhodamine B assay; settings: A549, 48 h, read-out: GI
COLO 205 = assay: Growth inhibition of human COLO205 cells at 10^-5 M incubated for 48 hrs by sulforhodamine B assay; settings: COLO 205, 48 h, read-out: GI
SK-MEL-2 = assay: Growth inhibition of human SK-MEL-2 cells at 10^-5 M incubated for 48 hrs by sulforhodamine B assay; settings: SK-MEL-2, 48 h, read-out: GI

Row | SMILES | inhibition of growth at 10 µM (SF-539) [%] | inhibition of growth at 10 µM (Malme-3M) [%] | inhibition of growth at 10 µM (OVCAR-4) [%] | inhibition of growth at 10 µM (K562) [%] | inhibition of growth at 10 µM (OVCAR-3) [%] | inhibition of growth at 10 µM (SW-620) [%] | inhibition of growth at 10 µM (SF-295) [%] | inhibition of growth at 10 µM (OVCAR-8) [%] | inhibition of growth at 10 µM (SNB-19) [%] | inhibition of growth at 10 µM (CCRF-CEM) [%] | inhibition of growth at 10 µM (NCI-H460) [%] | inhibition of growth at 10 µM (A498) [%] | inhibition of growth at 10 µM (ACHN) [%] | inhibition of growth at 10 µM (NCI-H23) [%] | inhibition of growth at 10 µM (PC-3) [%] | inhibition of growth at 10 µM (MDA-MB-435) [%] | inhibition of growth at 10 µM (U-251) [%] | inhibition of growth at 10 µM (SK-MEL-5) [%] | inhibition of growth at 10 µM (HOP-92) [%] | inhibition of growth at 10 µM (EKVX) [%] | further results
1 | O=C1SC2=Nc3c(sc4ccc(Cl)cc34)C(c3ccc4ccccc4c3)N2C1=O (stereo not drawn) | 5.81 | 12.9 | 23.6 | 12 | 9.4 | 4.8 | -2.51 | 5.42 | 2.61 | -5.01 | 4.51 | 13.1 | 14.5 | 20.5 | 17.1 | 2.92 | -1.96 | 5.6 | 16.5 | 12.9 | inhibition of growth at 10 µM (SF-268): 12.7%; inhibition of growth at 10 µM (HCT-116): 23.4%; inhibition of growth at 10 µM (SK-OV-3): 9.71%; inhibition of growth at 10 µM (TK-10): -28.7%; inhibition of growth at 10 µM (NCI/ADR-RES): 4.45%; inhibition of growth at 10 µM (LOX IMVI): 1.85%; inhibition of growth at 10 µM (NCI-H522): 16.6%; inhibition of growth at 10 µM (NCI-H322M): 13.9%; inhibition of growth at 10 µM (T47D): 24.5%; inhibition of growth at 10 µM (M14): 7.5%; inhibition of growth at 10 µM (KM12): 7.8%; inhibition of growth at 10 µM (HCT-15): 7.44%; inhibition of growth at 10 µM (Hs-578T): 1.4%; inhibition of growth at 10 µM (SNB-75): 5.78%; inhibition of growth at 10 µM (IGROV-1): 26.4%; inhibition of growth at 10 µM (SN12C): 13.2%; inhibition of growth at 10 µM (A549): 1.04%; inhibition of growth at 10 µM (COLO 205): -2.01%; inhibition of growth at 10 µM (SK-MEL-2): 14.1%
2 | O=C1CSC2=Nc3c(sc4ccc(Cl)cc34)C(c3ccc4ccccc4c3)N12 (stereo not drawn) | -2.59 | 4.51 | 3.47 | 7.65 | -0.24 | -3.91 | -4.03 | 3.28 | -1.93 | -4.04 | -1.49 | 20 | 7.81 | 14.1 | 7.88 | -5.65 | -7.94 | 2.92 | 6.48 | 7.05 | inhibition of growth at 10 µM (SF-268): 10.3%; inhibition of growth at 10 µM (HCT-116): -7.67%; inhibition of growth at 10 µM (SK-OV-3): 10.3%; inhibition of growth at 10 µM (TK-10): -19.4%; inhibition of growth at 10 µM (NCI/ADR-RES): -1.46%; inhibition of growth at 10 µM (LOX IMVI): 9.15%; inhibition of growth at 10 µM (NCI-H522): 1.87%; inhibition of growth at 10 µM (NCI-H322M): 6.48%; inhibition of growth at 10 µM (T47D): 15.7%; inhibition of growth at 10 µM (M14): 6.91%; inhibition of growth at 10 µM (KM12): 3.7%; inhibition of growth at 10 µM (HCT-15): 1.72%; inhibition of growth at 10 µM (Hs-578T): -0.18%; inhibition of growth at 10 µM (SNB-75): 16.8%; inhibition of growth at 10 µM (IGROV-1): 10.4%; inhibition of growth at 10 µM (SN12C): 9.96%; inhibition of growth at 10 µM (A549): 4.93%; inhibition of growth at 10 µM (COLO 205): -3.73%; inhibition of growth at 10 µM (SK-MEL-2): -6.76%
